Test results from patent EP4461368A1, “5H-PYRROLO[3,2-B:5,4-C']DIPYRIDINE DERIVATIVES AND 6,7,8,9-TETRAHYDRO-5H-PYRROLO[3,2-B:5,4-C']DIPYRIDINE DERIVATIVES USEFUL IN THE TREATMENT OF CANCER” (Institut Regional du Cancer de Montpellier, priority 2023, dated 2024).

What was measured:
Assay type in all cases: cell-based
[1] = system: cancer cells not exhibiting recruitment of MDM2 to chromatin (Hpac/ZR75.1); test: Cell survival, Sulforhodamine B assay (SRB assay), cells without recruitment of MDM2 to chromatin; details: Hpac/ZR75.1 cells, treated for 72 hours with increasing concentrations
Experimental: (§1) Cell survival after MDM2 inhibitor treatment (IC50) was determined using the Sulforhodamine B assay (SRB assay).
(§2) Cells were seeded in 96-well plates (Sarsted) in complete DMEM medium as to obtain triplicates for each condition (5 000 cells/well). After 24 hours, serial dilutions of the indicated compounds were added to the cells. […] Fixed SRB was finally dissolved in 10 mM Tris-HCl solution and 560nm absorbance was read using a PHERAstar FSX plate reader.

[2] = system: cancer cells exhibiting recruitment of MDM2 to chromatin (IB111); test: Cell survival, Sulforhodamine B assay (SRB assay), cells with recruitment of MDM2 to chromatin
Experimental: as §1, §2

Chromatin-MDM2 = target: T1, Chromatin-MDM2 (Homo sapiens, UniProt Q00987); test: MDM2 degradation by western blot and immunofluorescence, chromatin-bound MDM2; details: degradation efficacy, cells collected 18 hours after compound addition
T1 construct: endogenous in cells; host or cells: IB111 liposarcoma cells
T1 sequence (Q00987 whole entry): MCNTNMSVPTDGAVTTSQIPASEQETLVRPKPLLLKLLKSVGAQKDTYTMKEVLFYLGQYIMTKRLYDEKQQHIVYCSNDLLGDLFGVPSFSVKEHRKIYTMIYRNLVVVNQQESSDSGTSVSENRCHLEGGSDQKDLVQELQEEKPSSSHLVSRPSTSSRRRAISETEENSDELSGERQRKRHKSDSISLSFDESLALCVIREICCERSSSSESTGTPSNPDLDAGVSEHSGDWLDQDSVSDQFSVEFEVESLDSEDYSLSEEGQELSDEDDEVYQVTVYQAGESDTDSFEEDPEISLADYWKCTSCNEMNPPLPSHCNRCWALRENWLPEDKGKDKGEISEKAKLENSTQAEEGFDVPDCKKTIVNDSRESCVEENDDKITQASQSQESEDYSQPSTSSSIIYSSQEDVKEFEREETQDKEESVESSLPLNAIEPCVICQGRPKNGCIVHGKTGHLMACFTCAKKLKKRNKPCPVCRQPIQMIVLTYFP
Experimental: (§3) MDM2 degradation is measured by western blot and immunofluorescence.
(§4) Cells were seeded in 6-well plates (Sarsted) in complete DMEM medium as to obtain triplicates for each condition (500 000 cells/well). After 24 hours, the compounds were added to the cells. Then, 18 hours later cells were collected for western blotting or immunofluorescence. • Western Blot: Cells were collected in Laemmli buffer, boiled and analyzed in 8% acrylamide gel. • Immunofluorescence: Cancer cells were fixed with paraformaldehyde (PFA) 4% for 15 minutes then permeabilized for 15 minutes at RT with phosphate-buffered saline (PBS) Triton 0.1% and blocked with Phosphate buffered saline-[…] (PBS-BSA) 0.3% for 1 hour at RT before overnight incubation at 4 °C with an anti- mouse monoclonal antibody against MDM2 (MABE340 Millipore). Immunodetection was performed using an Alexa 488-conjugated anti-mouse IgG antibody (Thermo Fisher) for 45 minutes at RT. Cover glasses were mounted with Mowiol (Biovalley) and DAPI (Sigma) before analysis on a Zeiss apotome.

Cytoplasmic- MDM2 = target: T2, Cytoplasmic- MDM2 (Homo sapiens, UniProt Q00987); test: MDM2 degradation by western blot and immunofluorescence, cytoplasmic MDM2; details: degradation efficacy, cells collected 18 hours after compound addition
T2 construct: endogenous in cells; host or cells: hPac / ZR75.1 cancer cells
T2 sequence (Q00987 whole entry): as above
Experimental: as §3, §4

[3] = treated with increasing concentrations

2-methoxy-6-(5,6,7,8-tetrahydronaphthalen-1-yl)-5H-pyrrolo[3,2-b:5,4-c'] dipyridine [Compound 14]
efficiency on cancer cells not exhibiting recruitment of MDM2 to chromatin [1]: not efficient
IC50 ([2]; treated for 72 hours with increasing concentrations): < 500 nM
Chromatin-MDM2 degradation (Chromatin-MDM2): +++ (+++ ≥ 80%)
Cytoplasmic- MDM2 degradation (Cytoplasmic- MDM2): - (<25%: no degradation: indicated "-" in the table)

COc1ccc2[nH]c3c(-c4cccc5ccccc45)nccc3c2n1 [Compound 1, 2-methoxy-6-(naphthalen-1-yl)-5H-pyrrolo[3,2-b:5,4-c']dipyridine]
efficiency on cancer cells not exhibiting recruitment of MDM2 to chromatin [1]: not efficient
IC50 [2, 3]: < 500 nM
Chromatin-MDM2 degradation (Chromatin-MDM2): +++ (+++ ≥ 80%)
Cytoplasmic- MDM2 degradation (Cytoplasmic- MDM2): - (<25%: no degradation: indicated "-" in the table)

COc1ccc2[nH]c3c(-c4ccnc5nccnc45)nccc3c2n1 [Compound 3, 2-methoxy-6-(pyrido[2,3-b]pyrazin-8-yl)-5H-pyrrolo[3,2-b:5,4-c'] dipyridine]
Chromatin-MDM2 degradation (Chromatin-MDM2): + (25%≤+<40%)
Cytoplasmic- MDM2 degradation (Cytoplasmic- MDM2): - (<25%: no degradation: indicated "-" in the table)

COc1ccc2[nH]c3c(-c4cccc5ccccc45)nccc3c2n1.Cl [Compound 4, 2-methoxy-6-(naphthalen-1-yl)-5H-pyrrolo[3,2-b:5,4-c']dipyridine hydrochloride]
efficiency on cancer cells not exhibiting recruitment of MDM2 to chromatin [1]: not efficient
Chromatin-MDM2 degradation (Chromatin-MDM2): +++ (+++ ≥ 80%)
Cytoplasmic- MDM2 degradation (Cytoplasmic- MDM2): - (<25%: no degradation: indicated "-" in the table)

COc1ccc2[nH]c3c(-c4ccnc5ccccc45)nccc3c2n1 [Compound 6, 2-methoxy-6-(quinolin-4-yl)-5H-pyrrolo[3,2-b:5,4-c']dipyridine]
Chromatin-MDM2 degradation (Chromatin-MDM2): + (25%≤+<40%)
Cytoplasmic- MDM2 degradation (Cytoplasmic- MDM2): - (<25%: no degradation: indicated "-" in the table)

COc1ccc2[nH]c3c(-c4cccc5ccccc45)nccc3c2n1.O=C(O)/C=C/C(=O)O [Compound 10, 2-methoxy-6-(naphthalen-1-yl)-5H-pyrrolo[3,2-b:5,4-c']dipyridine fumarate]
efficiency on cancer cells not exhibiting recruitment of MDM2 to chromatin [1]: not efficient
Chromatin-MDM2 degradation (Chromatin-MDM2): +++ (+++ ≥ 80%)
Cytoplasmic- MDM2 degradation (Cytoplasmic- MDM2): - (<25%: no degradation: indicated "-" in the table)

COc1ccc2[nH]c3c(-c4cccc5ccccc45)nccc3c2n1.O=C(O)CC(O)(CC(=O)O)C(=O)O [Compound 11, 2-methoxy-6-(naphthalen-1-yl)-5H-pyrrolo[3,2-b:5,4-c']dipyridine 2-hydroxypropane-1,2,3-tricarboxylate]
efficiency on cancer cells not exhibiting recruitment of MDM2 to chromatin [1]: not efficient
Chromatin-MDM2 degradation (Chromatin-MDM2): +++ (+++ ≥ 80%)
Cytoplasmic- MDM2 degradation (Cytoplasmic- MDM2): - (<25%: no degradation: indicated "-" in the table)

COc1ccc2[nH]c3c(-c4cccc5ccccc45)nccc3c2n1.O=P(O)(O)O [Compound 12, 2-methoxy-6-(naphthalen-1-yl)-5H-pyrrolo[3,2-b:5,4-c']dipyridine phosphate]
efficiency on cancer cells not exhibiting recruitment of MDM2 to chromatin [1]: not efficient
Chromatin-MDM2 degradation (Chromatin-MDM2): ++ (40%≤++<80%)
Cytoplasmic- MDM2 degradation (Cytoplasmic- MDM2): - (<25%: no degradation: indicated "-" in the table)

COc1ccc2[nH]c3c(-c4cccc5ccccc45)nccc3c2n1.O=S(=O)(O)O [Compound 13, 2-methoxy-6-(naphthalen-1-yl)-5H-pyrrolo[3,2-b:5,4-c']dipyridine sulfate]
efficiency on cancer cells not exhibiting recruitment of MDM2 to chromatin [1]: not efficient
Chromatin-MDM2 degradation (Chromatin-MDM2): ++ (40%≤++<80%)
Cytoplasmic- MDM2 degradation (Cytoplasmic- MDM2): - (<25%: no degradation: indicated "-" in the table)

COc1ccc2[nH]c3c(-c4ccc(F)c5ccccc45)nccc3c2n1 [Compound 15, 6-(4-fluoronaphthalen-1-yl)-2-methoxy-5H-pyrrolo [3,2-b: 5,4-c'] dipyridine]
efficiency on cancer cells not exhibiting recruitment of MDM2 to chromatin [1]: not efficient
IC50 [2, 3]: < 500 nM
Chromatin-MDM2 degradation (Chromatin-MDM2): ++ (40%≤++<80%)
Cytoplasmic- MDM2 degradation (Cytoplasmic- MDM2): - (<25%: no degradation: indicated "-" in the table)

COc1ccc2[nH]c3c(-c4cccc5c4CCCC5)nccc3c2n1.Cl [Compound 16, 2-methoxy-6-(5,6,7,8-tetrahydronaphthalen-1-yl)-5H-pyrrolo[3,2-b:5,4-c']dipyridine hydrochloride]
efficiency on cancer cells not exhibiting recruitment of MDM2 to chromatin [1]: not efficient
IC50 [2, 3]: < 500 nM
Chromatin-MDM2 degradation (Chromatin-MDM2): +++ (+++ ≥ 80%)
Cytoplasmic- MDM2 degradation (Cytoplasmic- MDM2): - (<25%: no degradation: indicated "-" in the table)

COc1ccc2[nH]c3c(-c4ccc(F)c5ccccc45)nccc3c2n1.Cl [Compound 17, 6-(4-fluoronaphthalen-1-yl)-2-methoxy-5H-pyrrolo [3,2-b: 5,4-c']dipyridine hydrochloride]
Chromatin-MDM2 degradation (Chromatin-MDM2): + (25%≤+<40%)
Cytoplasmic- MDM2 degradation (Cytoplasmic- MDM2): - (<25%: no degradation: indicated "-" in the table)
